Laboratory results: patent US20110152218A1, “CRYSTALLINE PHOSPHOLIPID, METHOD FOR ITS PRODUCTION AND USE IN TREATING DAMAGED TISSUE” (priority 2008, published 2011)
Entries after “also recorded” stand apart in the source; their conditions may differ.

Key:
Type in all cases: cell-based, rabbit
[1] = system: collagen type I, collagen type III, fibronectin, PAI-1, tPA gene transcription in core derived cells; experiment: QRT-PCR gene transcription, core derived cells; conditions: 48-hour time course, pumactant 1 mg/ml or TGF-β1 2 ng/ml, n=3
Experimental: Cells were placed in serum free media for 24 hrs prior to stimulation with pumactant or TGF-β1; viability was assessed using Trypan blue (Sigma; data not shown). […] Total RNA was isolated from treated and untreated samples using Trizol (Gibco). Quant-iT™ Ribogreen® RNA kit (Invitrogen) was used to determine RNA concentration. First strand cDNA was synthesized using the StrataScript® first-strand synthesis system (Stratagene™) with oligonucleotide dTs (0.5 μg/μl) according to manufacturer's instructions.
(§1) Two μl of the first strand cDNA product was used for amplification in triplicate in a 25 μl reaction solution containing 12.5 μl of SYBR Green PCR Master Mix (Stratagene™, La Jolla, Calif.) and 10 pM of each primer as per manufacturer's instructions. Primer sequences are identified in Table 1. The primer sequences are also listed in the sequence listing which is attached to the specification of the present application and made a part thereof.
(§2) The PCR reaction was performed on a MX3000P (Stratagene, La Jolla, Calif.). The PCR program consisted of an initial denaturation where the reaction was incubated for 10 min at 95° C., the second step the DNA was amplified for 40 cycles of 30 sec at 95° C. annealing of primers for 1 min at 60° C. and an extension at 72° C. for 30 sec. Dissociation curve was performed to ensure no primer-dimers were present at the end of each PCR run.
(§3) The relative expression software tool (REST©) was used for the calculation of relative expression levels in real-time PCR (Pfaffl et al, 2002). This mathematical model is based on the PCR efficiencies and the mean crossing point deviation between the treated and untreated cells. The target gene expression was normalized with two housekeeping genes: GAPDH and ACTB. Statistical analysis of group differences was performed by Pair Wise Fixed Reallocation Randomization Test©, implemented in the REST-XL software (Pfaffl et al, 2002) and the coefficient of variance was given. Sigma Plot was used to illustrate the logarithmic graphs.

[2] = system: collagen type I, collagen type III, fibronectin, PAI-1, tPA gene transcription in sheath derived cells; experiment: QRT-PCR gene transcription, sheath derived cells; conditions: time course, pumactant 1 mg/ml or TGF-β1, n=3
Experimental: (§4) Cells were placed in serum free media for 24 hrs prior to stimulation with pumactant or TGF-β1; viability was assessed using Trypan blue (Sigma; data not shown). Quiescent cells were treated with pumactant (1 mg/ml) for 0-24 hrs or TGF-β1 for 0-24 h ours (positive control). Total RNA was isolated from treated and untreated samples using Trizol (Gibco). Quant-iT™ Ribogreen® RNA kit (Invitrogen) was used to determine RNA concentration. First strand cDNA was synthesized using the StrataScript® first-strand synthesis system (Stratagene™) with oligonucleotide dTs (0.5 μg/μl) according to manufacturer's instructions.
as §1, §2, §3

[3] = system: collagen type I, collagen type III, fibronectin, PAI-1, tPA gene transcription in surface derived cells; experiment: QRT-PCR gene transcription, surface derived cells; conditions: time course
Experimental: as §4, §1, §2, §3

[4] = system: cells derived from the surface of the tendon (epitenon); experiment: WST-1 proliferation assay, tendon surface cells
Experimental: (§5) Therefore all three-cell types were established and cultured as separate cell strains.
(§6) Tendon derived fibroblasts were cultured in Dulbecco's Modified Eagles Medium (DMEM) with 10% fetal calf serum, 2 mM glutamine, 100 U/ml penicillin and […] streptomycin (NGM).
(§7) A 5 mg/ml solution of the phospholipid prepared according to Example 1 and referred to in this example as “Pumactant” was dissolved in serum free media in a sterile 100 ml bottle incubated at 37° C. and then diluted further to a concentration of 1 mg/ml.
(§8) Fibroblasts derived from tendons were seeded at 5×10^3/well into a 96 microtitre plate (Greiner) and allowed to attach overnight in minimum media (DMEM supplemented with 0.4% FCS) to maintain cells in a healthy but quiescent state. After 24 hrs, the media was aspirated and replaced by test media (minimum media with concentrations of pumactant; or different concentrations of fetal calf serum; or different concentrations of TGF-β1) and cultured for 24, 48 and 72 hours. Cell number was assessed using WST-1 assay (Roche Products Ltd). Test media was removed and the wells washed twice with minimal media, minimal media was replaced and 10 μl WST-1 solution was added to each well. The cells were incubated for 1 hour in standard tissue culture conditions. The absorbance, which related to the number of viable cells converting the reagent to coloured formazan crystals, was read at 450 nm on a Bio-Rad Plate reader. Experiments were performed in triplicate for each cell strain.

[5] = system: cells derived from the tendon sheath; experiment: WST-1 proliferation assay, tendon sheath cells
Experimental: as §5, §6, §7, §8

[6] = system: tendon core cells (endotenon); experiment: WST-1 proliferation assay, tendon core cells
Experimental: as §5, §6, §7, §8

[7] = pumactant 1 mg/ml or TGF-β1, n=3

With “TGF-β1: growth factor used as positive control” the PAI-1 gene transcription [1] was “up regulation of gene transcription at 2 and 4 hours but this was only statistically significant at 2 hours; also recorded: statistically significant increase at 2 hrs”, the “collagen type I gene transcription” value [1] was “no statistical change” and the “collagen type III gene transcription” value [1] was “statistically significant down regulation in the early stages of the time course 2, 6 and 8 hours; also recorded: statistically significant down regulation at 2, 6 and 8 hours”. The fibronectin gene transcription [1] was “at 6 h a statistically significant down regulation (p=0.024), which was later, reversed with a statistically significant up regulation at 24 and 48 hours; also recorded: significant down regulation of fibronectin gene transcription at 6 hours (*p=0.024) and a statistically significant up-regulation at 24 hrs (*p=0.03) and 48 hrs”, the tPA gene transcription [1] was “statistically significant down regulation in gene transcription at 1, 2, 6, 8 and 24 hrs 0.01) and 16 hours” and the PAI-1 gene transcription [2] was “no statistical changes over the whole time course”. The “collagen type I gene transcription” value [2] was “up regulate of Collagen type I gene transcription over the time course though this did not reach statistical significance”, the “collagen type III gene transcription” value [2] was “up regulation, which was statistically significant at 6 hours, 8 hours (p=0.03; FIG. 30), 16 and 24 hours; also recorded: statistically significant up regulation at 6 hrs (*p=0.03), 8 hrs (*p=0.037), 16 hrs (*p=0.012) and 24 hrs” and the fibronectin gene transcription [2] was “no statistical changes over the whole time course”. The tPA gene transcription [2] was “down regulation of gene transcription which was statistically significant at 2 hrs (p=0.013), 4 hours and 24 hours; also recorded: statistically significant down regulation at 2 hrs (*p=0.013), 4 hrs (*p=0.001) and 24 hrs”, the PAI-1 gene transcription [3, 7] was “up regulation in response to TGF-β1, which was statistically significant at 24 hours for fibronectin (p=0.03) and 4 hours for PAI-1” and the “collagen type III gene transcription” value [3, 7] was “statistically significant down regulation at 1 hrs (*p=0.036), 2 hrs (*p=0.001), 6 hrs (*p=0.038), 16 hrs and 48 hrs”. The fibronectin gene transcription [3, 7] was “up regulation in response to TGF-β1, which was statistically significant at 24 hours for fibronectin”, the “collagen type I gene transcription” value ([3]; pumactant 1 mg/ml or TGF-β1, vs untreated, normalized with GAPDH and ACTB, n=3) was “up regulation of Collagen type I gene transcription which was statistically significant at 24 and 48 hours; also recorded: statistically significant up regulation at 24 hours (*p=0.025) and 48 hours” and the “proliferation of surface cells” value ([4]; 24 hours, over the tested concentrations) was “no statistical significant difference at any concentration”. The “proliferation of surface cells” value ([4]; 48 hours, various concentrations of TGF-β1) was “No concentrations of TGF-β1 showed any statistical increase; also recorded: no statistical significance”, the “proliferation of surface cells compared to minimal media” value ([4]; 72 hours, 2 ng/ml of TGF-β1, FIG. 24C) was “statistically significant increase in proliferation; also recorded: increase was identified at 2 ng/ml” and the “cell number of sheath cells compared to control media” value ([5]; 24 hours, the other / various concentrations) was “no statistical significance; also recorded: no statistical changes in cell number”. For the same substance, the “proliferation of sheath cells” value ([5]; 48 hours, any concentration) was “no statistical significance for any concentration”, the “proliferation of sheath cells” value ([5]; 72 hours, 0.5 ng/ml of TGF-β1) was “statistical significant increase” and the “proliferation of core cells” value ([6]; 24 hours, over the tested concentrations, FIG. 25) was “no statistical increase in proliferation”. The “proliferation of core cells” value ([6]; 48 hours, various concentrations) was “no statistical significance” and the “proliferation of core cells” value ([6]; 72 hours, any concentration, FIG. 27) was “no statistical significance”.
